One assay concerns the target BRD4-BD1 (Homo sapiens (Human), UniProt O60885). Put plainly: BRD4 AlphaScreen Assay (Example A1), BRD4-BD1. Format: binding. The conditions noted are these: Assay A1, 3.8 nM BRD4-BD1, 50 nM H4Ac4 peptide; read-out: BRD4 BD-1 enzyme IC50. How it is done: (§1) BRD4-BD1 and BRD4-BD2 assays were conducted in white 384-well polystyrene plate in a final volume of 20 μL for BD1 and 40 μL for BD2. Inhibitors were first serially diluted in DMSO and added to the plate wells before the addition of other reaction components. […] After plate sealing, the plate was incubated in the dark at room temperature for 75 min. before reading on a PHERAstar FS plate reader (BMG Labtech). IC50 determination was performed by fitting the curve of percent control activity versus the log of the inhibitor concentration using the GraphPad Prism 5.0 software.
Background: In Alpha technology, singlet oxygen from a donor bead excites a nearby acceptor bead.

Another assay has as its target BRD4-BD2 (Homo sapiens (Human), UniProt O60885). Put plainly: BRD4 AlphaScreen Assay (Example A1), BRD4-BD2. Format: binding. As to conditions: Assay A1, 20 nM BRD4-BD2, 50 nM H4Ac4 peptide; read-out: BRD4 BD-2 enzyme IC50. The procedure: as §1
The subject of another assay is KMS.12.BM cells. Put plainly: KMS.12.BM Cell Viability Assay (Example B1). The class given is cell-based, human. The conditions noted are these: 3 days, Cell Titer-GLO, read-out: KMS cellular IC50. The procedure: KMS.12.BM cell line (human myeloma) was purchased from JCRB (Osaka, Japan) and maintained in RPMI with 10% FBS culture medium. To measure the cytotoxic activity of the compounds through ATP quantitation, the KMS.12.BM cells are plated in the RPMI culture medium at 5000 cells/well/per 100 μL into a 96-well polystyrene clear black tissue culture plate (Greiner-bio-one through VWR, NJ), in the presence or absence of a concentration range of test compounds. After 3 days, […] Cell Titer-GLO Luminescent (Promega, Madison, Wis.) cell culture agent is added to each well for 10 min. at room temperature to stabilize the luminescent signal. This determines the number of viable cells in culture based on quantitation of the ATP present, which signals the presence of metabolically active cells.
On the technique in general: Cellular ATP, detected with luciferase, serves as a proxy for viable cell number.

Usually IC50 stands for the midpoint of a concentration-inhibition curve.

The structures appear in SMILES notation. Like-named read-outs stand apart in the source and are kept apart here.

`Cc1noc(C)c1-c1ccc2[nH]c(=O)n3c2c1OCC3c1ccccn1` (racemic) [Example 13, 7-(3,5-Dimethylisoxazol-4-yl)-4-pyridin-2-yl-4,5-dihydroimidazo[1,5,4-de][1,4]benzoxazin-2(1H)-one]: the IC50 at BRD4-BD1 is less than 100 nM; at BRD4-BD2 it was less than 100 nM; with KMS.12.BM cells (Homo sapiens, KMS-12-BM, 72 h), less than 1000 nM.

As for `Cc1noc(C)c1-c1ccc2[nH]c(=O)n3c2c1OCC3c1ccccn1` (single isomer, unassigned) [Example 15, 7-(3,5-Dimethylisoxazol-4-yl)-4-pyridin-2-yl-4,5-dihydroimidazo[1,5,4-de][1,4]benzoxazin-2(1H)-one], the IC50 is less than 100 nM at BRD4-BD1; less than 100 nM on BRD4-BD2; less than 1000 nM in the assay on KMS.12.BM cells (Homo sapiens, KMS-12-BM, 72 h).

Take `Cc1noc(C)c1-c1ccc2nc(N3CC[C@@H](O)C3)n3c2c1OCC3c1cccnc1` (single isomer, unassigned) [Example 159C]: the 50% inhibitory concentration (IC50) in the assay with KMS.12.BM cells lay within 1000 to 10000 nM.

For the compound `Cc1noc(C)c1-c1ccc2[nH]c(=O)n3c2c1OCC3C1CCCCC1` (stereo not shown) [Example 17, 4-Cyclohexyl-7-(3,5-dimethylisoxazol-4-yl)-4,5-dihydroimidazo[1,5,4-de][1,4]benzoxazin-2(1H)-one], the IC50 on BRD4-BD1 and on BRD4-BD2 was less than 100 nM in each case.

Consider `Cc1noc(C)c1-c1ccc2[nH]c(=O)n3c2c1OCC3c1nccs1` (stereo not shown) [Example 21, 7-(3,5-Dimethylisoxazol-4-yl)-4-(1,3-thiazol-2-yl)-4,5-dihydroimidazo[1,5,4-de][1,4]benzoxazin-2(1H)-one], for which the IC50 at BRD4-BD1 and on BRD4-BD2 was less than 100 nM each time.

As for `CCNC(=O)COc1ccccc1C1COc2c(-c3c(C)noc3C)ccc3[nH]c(=O)n1c23` (stereo not shown) [Example 22, 2-{2-[7-(3,5-Dimethylisoxazol-4-yl)-2-oxo-1,2,4,5-tetrahydroimidazo[1,5,4-de][1,4]benzoxazin-4-yl]phenoxy}-N-ethylacetamide], the IC50 at BRD4-BD1 and at BRD4-BD2 was less than 100 nM throughout.

With `Cc1noc(C)c1-c1ccc2nc(NC(C)C)n3c2c1OCC3c1ccccc1` (stereo not shown) [Example 25, 7-(3,5-Dimethylisoxazol-4-yl)-N-isopropyl-4-phenyl-4,5-dihydroimidazo[1,5,4-de][1,4]benzoxazin-2-amine], the IC50 on BRD4-BD1 and on BRD4-BD2 was less than 100 nM each time.

As for `CNc1nc2ccc(-c3c(C)noc3C)c3c2n1C(c1ccccc1)CO3` (stereo not shown) [Example 26, 7-(3,5-Dimethylisoxazol-4-yl)-N-methyl-4-phenyl-4,5-dihydroimidazo[1,5,4-de][1,4]benzoxazin-2-amine], the IC50 on BRD4-BD1 and on BRD4-BD2 was less than 100 nM throughout.

On to `CCNc1nc2ccc(-c3c(C)noc3C)c3c2n1C(c1ccccc1)CO3` (stereo not shown) [Example 27, 7-(3,5-Dimethylisoxazol-4-yl)-N-ethyl-4-phenyl-4,5-dihydroimidazo[1,5,4-de][1,4]benzoxazin-2-amine], for which the IC50 on BRD4-BD1 and at BRD4-BD2 was less than 100 nM each time.

Take `Cc1noc(C)c1-c1ccc2nc(N(C)C)n3c2c1OCC3c1ccccc1` (stereo not shown) [Example 28, 7-(3,5-Dimethylisoxazol-4-yl)-N,N-dimethyl-4-phenyl-4,5-dihydroimidazo[1,5,4-de][1,4]benzoxazin-2-amine]: the IC50 on BRD4-BD1 and on BRD4-BD2 was less than 100 nM in each case.

In the case of `Cc1noc(C)c1-c1ccc2nc(NCCO)n3c2c1OCC3c1ccccc1` (stereo not shown) [Example 29, 2-{[7-(3,5-Dimethylisoxazol-4-yl)-4-phenyl-4,5-dihydroimidazo[1,5,4-de][1,4]benzoxazin-2-yl]amino}ethanol], the IC50 on BRD4-BD1 and at BRD4-BD2 was less than 100 nM each time.

On to `Cc1noc(C)c1-c1ccc2nc(NCC(C)O)n3c2c1OCC3c1ccccc1` (stereo not shown) [Example 32, 1-{[7-(3,5-Dimethylisoxazol-4-yl)-4-phenyl-4,5-dihydroimidazo[1,5,4-de][1,4]benzoxazin-2-yl]amino}propan-2-ol], for which the IC50 on BRD4-BD1 and at BRD4-BD2 was less than 100 nM throughout.

Consider `Cc1noc(C)c1-c1ccc2nc(NC(C)(C)CO)n3c2c1OCC3c1ccccc1` (stereo not shown) [Example 33, 2-{[7-(3,5-Dimethylisoxazol-4-yl)-4-phenyl-4,5-dihydroimidazo[1,5,4-de][1,4]benzoxazin-2-yl]amino}-2-methylpropan-1-ol], for which the figures for the IC50 at BRD4-BD1 and at BRD4-BD2 were 1000 to 10000 nM and 100 to 1000 nM, respectively.

Turning to `Cc1noc(C)c1-c1ccc2nc(N(C)CCO)n3c2c1OCC3c1ccccc1` (stereo not shown) [Example 34, 2-[[7-(3,5-Dimethylisoxazol-4-yl)-4-phenyl-4,5-dihydroimidazo[1,5,4-de][1,4]benzoxazin-2-yl](methyl)amino]ethanol], the IC50 at BRD4-BD1 and at BRD4-BD2 was less than 100 nM each time.

On to `Cn1nccc1-c1ccc2[nH]c(=O)n3c2c1OCC3c1ccccc1` (stereo not shown) [Example 35, 7-(1-Methyl-1H-pyrazol-5-yl)-4-phenyl-4,5-dihydroimidazo[1,5,4-de][1,4]benzoxazin-2(1H)-one], for which the values for the IC50 at BRD4-BD1 and at BRD4-BD2 were 100 to 1000 nM and less than 100 nM, respectively.

Turning to `Cn1nccc1-c1cc(Br)c2[nH]c(=O)n3c2c1OCC3c1ccccc1` (stereo not shown) [Example 36, 9-Bromo-7-(1-methyl-1H-pyrazol-5-yl)-4-phenyl-4,5-dihydroimidazo[1,5,4-de][1,4]benzoxazin-2(1H)-one], the IC50 on BRD4-BD1 is 100 to 1000 nM; on BRD4-BD2, less than 100 nM.

Take `Cc1cc(-c2ccnn2C)c2c3c1[nH]c(=O)n3C(c1ccccc1)CO2` (stereo not shown) [Example 37, 9-Methyl-7-(1-methyl-1H-pyrazol-5-yl)-4-phenyl-4,5-dihydroimidazo[1,5,4-de][1,4]benzoxazin-2(1H)-one]: the IC50 is 100 to 1000 nM on BRD4-BD1 and less than 100 nM at BRD4-BD2.

For `Cn1ncc(Cl)c1-c1ccc2[nH]c(=O)n3c2c1OCC3c1ccccc1` (stereo not shown) [Example 38, 7-(4-Chloro-1-methyl-1H-pyrazol-5-yl)-4-phenyl-4,5-dihydroimidazo[1,5,4-de][1,4]benzoxazin-2(1H)-one], the results for the IC50 on BRD4-BD1 and at BRD4-BD2 were 1000 to 10000 nM and 100 to 1000 nM, respectively.

As for `Cc1noc(C)c1-c1ccc2ncn3c2c1OCC3c1ccccc1` (stereo not shown) [Example 39, 7-(3,5-Dimethylisoxazol-4-yl)-4-phenyl-4,5-dihydroimidazo[1,5,4-de][1,4]benzoxazine], the IC50 on BRD4-BD1 and on BRD4-BD2 was less than 100 nM throughout.

`Cc1noc(C)c1-c1ccc2[nH]c(=O)n3c2c1OCC3c1ccc(F)cc1` (stereo not shown) [Example 49, 7-(3,5-Dimethylisoxazol-4-yl)-4-(4-fluorophenyl)-4,5-dihydroimidazo[1,5,4-de][1,4]benzoxazin-2(1H)-one]: the IC50 at BRD4-BD1 and at BRD4-BD2 was less than 100 nM each time.

On to `Cc1noc(C)c1-c1ccc2[nH]c(=O)n3c2c1OCC3c1ccccc1OCC(=O)NCCO` (stereo not shown) [Example 50, 2-{2-[7-(3,5-Dimethylisoxazol-4-yl)-2-oxo-1,2,4,5-tetrahydroimidazo[1,5,4-de][1,4]benzoxazin-4-yl]phenoxy}-N-(2-hydroxyethyl)acetamide], for which the IC50 at BRD4-BD1 and at BRD4-BD2 was less than 100 nM each time.

`Cc1noc(C)c1-c1ccc2[nH]c(=O)n3c2c1OCC3c1ccccc1OCC(=O)N(C)C` (stereo not shown) [Example 51, 2-{2-[7-(3,5-Dimethylisoxazol-4-yl)-2-oxo-1,2,4,5-tetrahydroimidazo[1,5,4-de][1,4]benzoxazin-4-yl]phenoxy}-N,N-dimethylacetamide]: the IC50 at BRD4-BD1 and at BRD4-BD2 was less than 100 nM each time.

Regarding `Cc1noc(C)c1-c1ccc2nc(N3CCCC3)n3c2c1OCC3c1ccccc1` (stereo not shown) [Example 54, 7-(3,5-Dimethylisoxazol-4-yl)-4-phenyl-2-pyrrolidin-1-yl-4,5-dihydroimidazo[1,5,4-de][1,4]benzoxazine], the IC50 on BRD4-BD1 and on BRD4-BD2 was less than 100 nM throughout.

For `Cc1noc(C)c1-c1ccc2nc(N3CCC(O)CC3)n3c2c1OCC3c1ccccc1` (stereo not shown) [Example 57, 1-[7-(3,5-Dimethylisoxazol-4-yl)-4-phenyl-4,5-dihydroimidazo[1,5,4-de][1,4]benzoxazin-2-yl]piperidin-4-ol], the IC50 at BRD4-BD1 and at BRD4-BD2 was less than 100 nM each time.

Regarding `Cc1noc(C)c1-c1ccc2nc(N3CCCC(O)C3)n3c2c1OCC3c1ccccc1` (stereo not shown) [Example 58, 1-[7-(3,5-Dimethylisoxazol-4-yl)-4-phenyl-4,5-dihydroimidazo[1,5,4-de][1,4]benzoxazin-2-yl]piperidin-3-ol], the IC50 on BRD4-BD1 and at BRD4-BD2 was less than 100 nM each time.

As to `Cc1noc(C)c1-c1ccc2nc(N3CC(O)C3)n3c2c1OCC3c1ccccc1` (stereo not shown) [Example 59, 1-[7-(3,5-Dimethylisoxazol-4-yl)-4-phenyl-4,5-dihydroimidazo[1,5,4-de][1,4]benzoxazin-2-yl]azetidin-3-ol], the IC50 on BRD4-BD1 and on BRD4-BD2 was less than 100 nM throughout.

As to `Cc1noc(C)c1-c1ccc2nc(N3CCN(C(=O)OC(C)(C)C)CC3)n3c2c1OCC3c1ccccc1` (stereo not shown) [Example 60], the IC50 at BRD4-BD1 and at BRD4-BD2 was less than 100 nM each time.

The values are drawn from patent US9624241B2 (Incyte Corporation, priority 2013, dated 2017).
